Measured values from the supplement of paper PMC10307832.

Compound: CO[C@@H]1[C@H](N(C)C(=O)c2ccccc2)C[C@H]2O[C@]1(C)n1c3ccccc3c3c4c(c5c6ccccc6n2c5c31)C(=O)NC4 [Midostaurin] + CCNC(=O)c1noc(-c2cc(C(C)C)c(O)cc2O)c1-c1ccc(CN2CCOCC2)cc1 [Luminespib] (partner 0.01 µM)
Test: relative viability (nuclei count vs DMSO), 5 days (fraction); higher = more cells survive
Settings: first compound 0.3162 µM
How it was run: (§1)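 Cells from lung cancer lines were seeded into 1536-well plates and, one day later, dosed by pin tool. Treatments were either a single drug or a fixed dose of an anchor drug with five library-drug doses (not always all listed) in √10 steps. After 5 days, nuclei were stained in a one-step fixation (final 0.05% Triton X-100, 1% formaldehyde, 1 ug/ml Hoechst) and counted on 4× images, and relative viability is the treated-to-vehicle nuclei ratio, as the median of duplicate plates.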

Cell Line	relative viability
HOP-62	0.984
NCI-H522	1.21
LU99A	0.291
BEN	0.457
HARA	0.76
SW 900	0.151
NCI-H322M	1.23
LCLC-97TM1	0.763
A-427	0.953
NCI-H441	0.351
NCI-H1734	0.187
NCI-H460	0.0369
NCI-H2347	0.325
NCI-H1395	0.665
201T	1.06
NCI-H1915	0.797
HCC-827	0.813
LXF-289	0.596
NCI-H23	0.197
NCI-H647	0.264
CAL-12T	0.174
NCI-H1651	0.66
EPLC-272H	0.48
NCI-H1355	0.702
NCI-H3122	0.0981
NCI-H1437	1.1
NCI-H1755	0.443
HCC-15	0.165
NCI-H1793	0.168
PC-14	0.152

Compound: CO[C@@H]1[C@H](N(C)C(=O)c2ccccc2)C[C@H]2O[C@]1(C)n1c3ccccc3c3c4c(c5c6ccccc6n2c5c31)C(=O)NC4 [Midostaurin] + O=C(CCCCCCC(=O)Nc1ccccc1)NO [Vorinostat] (partner 1 µM)
Test: as above
Settings: first compound 0.01 µM
How it was run: as §1

Cell Line	relative viability
NCI-H2405	1.05
HOP-62	0.545
NCI-H522	0.862
LU99A	0.672
BEN	0.594
HARA	0.482
SW 900	0.402
NCI-H322M	0.877
LCLC-97TM1	0.668
A-427	0.883
NCI-H441	0.846
NCI-H1734	0.796
NCI-H460	0.697
NCI-H2347	0.575
NCI-H1395	0.651
201T	0.991

Cell Line	relative viability
NCI-H1915	0.447
HCC-827	0.869
LXF-289	0.772
NCI-H23	0.514
NCI-H647	0.591
CAL-12T	0.689
NCI-H1651	0.566
EPLC-272H	0.47
NCI-H1355	0.665
NCI-H3122	0.963
NCI-H1437	0.869
NCI-H1755	0.748
HCC-15	0.942
NCI-H1793	0.766
PC-14	0.719

Same assay, conditions: first compound 0.03162 µM

Cell Line	relative viability
NCI-H2405	1.24
HOP-62	0.607
NCI-H522	1.18
LU99A	0.433
BEN	0.552
HARA	0.603
SW 900	0.502
NCI-H322M	0.849
LCLC-97TM1	0.534
A-427	0.887
NCI-H441	0.801
NCI-H1734	0.818
NCI-H460	0.578
NCI-H2347	0.511
NCI-H1395	0.856
201T	0.871

Cell Line	relative viability
NCI-H1915	0.487
HCC-827	0.724
LXF-289	0.734
NCI-H23	0.68
NCI-H647	0.988
CAL-12T	0.742
NCI-H1651	0.571
EPLC-272H	0.436
NCI-H1355	0.672
NCI-H3122	0.904
NCI-H1437	0.833
NCI-H1755	0.809
HCC-15	0.806
NCI-H1793	0.789
PC-14	0.673

Same assay, conditions: first compound 0.1 µM

Cell Line	relative viability
NCI-H2405	1.01
HOP-62	0.676
NCI-H522	0.827
LU99A	0.454
BEN	0.707
HARA	0.466
SW 900	0.52
NCI-H322M	0.994
LCLC-97TM1	0.635
A-427	0.848
NCI-H441	0.801
NCI-H1734	0.855
NCI-H460	0.65
NCI-H2347	0.602
NCI-H1395	0.671
201T	1.02

Cell Line	relative viability
NCI-H1915	0.576
HCC-827	0.897
LXF-289	0.756
NCI-H23	0.54
NCI-H647	0.536
CAL-12T	0.734
NCI-H1651	0.566
EPLC-272H	0.426
NCI-H1355	0.619
NCI-H3122	0.905
NCI-H1437	0.818
NCI-H1755	0.715
HCC-15	0.785
NCI-H1793	0.854
PC-14	0.67

Same assay, conditions: first compound 0.3162 µM

Cell Line	relative viability
NCI-H2405	1.02
HOP-62	0.5
NCI-H522	1.03
LU99A	0.479
BEN	0.598
HARA	0.505
SW 900	0.458
NCI-H322M	1.28
LCLC-97TM1	0.756
A-427	0.937
NCI-H441	0.585
NCI-H1734	0.467
NCI-H460	0.115
NCI-H2347	0.419
NCI-H1395	0.682
201T	1.08

Cell Line	relative viability
NCI-H1915	0.513
HCC-827	0.873
LXF-289	0.689
NCI-H23	0.243
NCI-H647	0.275
CAL-12T	0.457
NCI-H1651	0.593
EPLC-272H	0.393
NCI-H1355	0.667
NCI-H3122	0.89
NCI-H1437	0.654
NCI-H1755	0.783
HCC-15	0.765
NCI-H1793	0.296
PC-14	0.666
